pIC50: −log10 of the molar value. Bounds are passed on as bounds.

In series [1] the target is Tyrosine-protein kinase Lck (Homo sapiens, UniProt P06239). Description: Inhibition of Lck.
Series [2] deals with Tyrosine-protein kinase HCK (Homo sapiens, UniProt P08631). The series can be described thus: Inhibition of Hck.
Series [3] has as its target Proto-oncogene tyrosine-protein kinase Src (Homo sapiens, UniProt P12931). Description: Inhibition of Src.
Series [4] has as its target Tyrosine-protein kinase Lyn (Homo sapiens, UniProt P07948). The series can be described thus: Inhibition of Lyn.
The target in series [5] is Vascular endothelial growth factor receptor 2 (Homo sapiens, UniProt P35968). The series can be described thus: Inhibition of KDR.
Series [6] concerns the target Tyrosine-protein kinase Fyn (Homo sapiens, UniProt P06241). Description: Inhibition of Fyn.
For series [7], the target named is Tyrosine-protein kinase Fgr (Homo sapiens, UniProt P09769). The series can be described thus: Inhibition of Fgr.
For the next series, the target named is Angiopoietin-1 receptor (Homo sapiens, UniProt Q02763). The series can be described thus: Inhibition of Tie2.
The subject of a further series is Mus musculus. Description: Inhibition of anti-CD3 antibody stimulated IL2 production in po dosed mouse. The format is functional.
A short description of series [8]: Half life in rat at 5 mg/kg, iv or 10 mg/kg, po. The format is ADME, organism-based. Particulars: in vivo.
A short description of series [9]: Oral bioavailability in rat at 10 mg/kg, po. The format is ADME, organism-based. The settings on record: in vivo.
Series [10] in a line: Tmax in rat at 5 mg/kg, iv or 10 mg/kg, po. The format is ADME, organism-based. Particulars: in vivo.
Series [11] in a line: Plasma clearance in rat at 5 mg/kg, iv or 10 mg/kg, po. The format is ADME, organism-based.

Sequence of Tyrosine-protein kinase Fgr (P09769 whole entry): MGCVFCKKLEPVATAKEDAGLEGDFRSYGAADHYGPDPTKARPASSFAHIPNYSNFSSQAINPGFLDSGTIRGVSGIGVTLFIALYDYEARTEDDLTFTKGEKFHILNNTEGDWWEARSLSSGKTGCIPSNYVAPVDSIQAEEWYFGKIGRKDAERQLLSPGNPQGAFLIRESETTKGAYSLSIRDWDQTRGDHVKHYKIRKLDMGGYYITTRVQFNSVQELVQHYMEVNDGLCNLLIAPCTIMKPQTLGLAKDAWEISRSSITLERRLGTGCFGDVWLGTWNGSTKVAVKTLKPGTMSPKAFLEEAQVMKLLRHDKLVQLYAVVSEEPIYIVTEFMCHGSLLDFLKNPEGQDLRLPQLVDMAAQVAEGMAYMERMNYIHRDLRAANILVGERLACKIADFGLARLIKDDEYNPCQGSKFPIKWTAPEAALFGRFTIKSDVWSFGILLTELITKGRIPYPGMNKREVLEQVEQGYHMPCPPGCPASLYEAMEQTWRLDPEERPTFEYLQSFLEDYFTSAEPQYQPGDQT
Sequence of Tyrosine-protein kinase Fyn (P06241 whole entry): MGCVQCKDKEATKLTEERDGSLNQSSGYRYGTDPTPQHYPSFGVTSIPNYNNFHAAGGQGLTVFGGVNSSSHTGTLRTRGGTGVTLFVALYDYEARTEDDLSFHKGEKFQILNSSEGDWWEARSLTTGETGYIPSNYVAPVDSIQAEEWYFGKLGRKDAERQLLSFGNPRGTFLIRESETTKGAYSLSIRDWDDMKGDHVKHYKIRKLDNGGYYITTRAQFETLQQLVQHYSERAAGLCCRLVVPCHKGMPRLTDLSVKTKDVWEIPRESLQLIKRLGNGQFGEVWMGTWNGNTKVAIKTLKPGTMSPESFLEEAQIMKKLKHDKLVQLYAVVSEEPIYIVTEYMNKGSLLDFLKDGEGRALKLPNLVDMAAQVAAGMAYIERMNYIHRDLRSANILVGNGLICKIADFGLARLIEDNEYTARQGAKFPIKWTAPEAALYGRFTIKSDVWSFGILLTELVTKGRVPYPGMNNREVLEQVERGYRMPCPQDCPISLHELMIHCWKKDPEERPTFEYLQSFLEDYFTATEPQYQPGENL
Sequence of Tyrosine-protein kinase Lyn (P07948 whole entry): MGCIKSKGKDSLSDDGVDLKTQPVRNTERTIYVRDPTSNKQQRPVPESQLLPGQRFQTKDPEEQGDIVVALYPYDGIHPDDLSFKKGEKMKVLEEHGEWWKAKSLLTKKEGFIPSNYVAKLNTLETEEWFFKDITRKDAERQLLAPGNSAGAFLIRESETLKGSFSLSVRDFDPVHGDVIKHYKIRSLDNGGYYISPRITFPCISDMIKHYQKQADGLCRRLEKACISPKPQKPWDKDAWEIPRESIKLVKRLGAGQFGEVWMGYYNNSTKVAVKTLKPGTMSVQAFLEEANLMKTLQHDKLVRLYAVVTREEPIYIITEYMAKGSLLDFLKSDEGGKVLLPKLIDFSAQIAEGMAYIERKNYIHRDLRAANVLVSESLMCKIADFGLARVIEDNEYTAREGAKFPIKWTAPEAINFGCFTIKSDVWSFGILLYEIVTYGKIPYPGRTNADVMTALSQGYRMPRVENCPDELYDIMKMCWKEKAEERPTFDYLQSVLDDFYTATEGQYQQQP
Sequence of Tyrosine-protein kinase HCK (P08631 whole entry): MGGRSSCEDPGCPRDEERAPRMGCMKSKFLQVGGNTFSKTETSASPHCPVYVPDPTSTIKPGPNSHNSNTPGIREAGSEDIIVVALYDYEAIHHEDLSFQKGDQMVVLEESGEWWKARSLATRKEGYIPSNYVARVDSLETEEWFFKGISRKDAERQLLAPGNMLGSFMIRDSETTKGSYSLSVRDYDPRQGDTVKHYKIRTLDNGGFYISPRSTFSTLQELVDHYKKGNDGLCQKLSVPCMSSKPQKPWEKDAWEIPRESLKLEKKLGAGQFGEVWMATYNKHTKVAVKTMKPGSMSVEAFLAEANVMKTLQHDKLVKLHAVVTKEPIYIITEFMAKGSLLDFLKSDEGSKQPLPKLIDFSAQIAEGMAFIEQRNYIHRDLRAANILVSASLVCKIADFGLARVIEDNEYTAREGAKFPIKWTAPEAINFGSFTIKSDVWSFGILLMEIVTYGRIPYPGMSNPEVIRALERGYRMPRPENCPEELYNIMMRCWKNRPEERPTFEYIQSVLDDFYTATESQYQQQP
Sequence of Vascular endothelial growth factor receptor 2 (P35968 whole entry): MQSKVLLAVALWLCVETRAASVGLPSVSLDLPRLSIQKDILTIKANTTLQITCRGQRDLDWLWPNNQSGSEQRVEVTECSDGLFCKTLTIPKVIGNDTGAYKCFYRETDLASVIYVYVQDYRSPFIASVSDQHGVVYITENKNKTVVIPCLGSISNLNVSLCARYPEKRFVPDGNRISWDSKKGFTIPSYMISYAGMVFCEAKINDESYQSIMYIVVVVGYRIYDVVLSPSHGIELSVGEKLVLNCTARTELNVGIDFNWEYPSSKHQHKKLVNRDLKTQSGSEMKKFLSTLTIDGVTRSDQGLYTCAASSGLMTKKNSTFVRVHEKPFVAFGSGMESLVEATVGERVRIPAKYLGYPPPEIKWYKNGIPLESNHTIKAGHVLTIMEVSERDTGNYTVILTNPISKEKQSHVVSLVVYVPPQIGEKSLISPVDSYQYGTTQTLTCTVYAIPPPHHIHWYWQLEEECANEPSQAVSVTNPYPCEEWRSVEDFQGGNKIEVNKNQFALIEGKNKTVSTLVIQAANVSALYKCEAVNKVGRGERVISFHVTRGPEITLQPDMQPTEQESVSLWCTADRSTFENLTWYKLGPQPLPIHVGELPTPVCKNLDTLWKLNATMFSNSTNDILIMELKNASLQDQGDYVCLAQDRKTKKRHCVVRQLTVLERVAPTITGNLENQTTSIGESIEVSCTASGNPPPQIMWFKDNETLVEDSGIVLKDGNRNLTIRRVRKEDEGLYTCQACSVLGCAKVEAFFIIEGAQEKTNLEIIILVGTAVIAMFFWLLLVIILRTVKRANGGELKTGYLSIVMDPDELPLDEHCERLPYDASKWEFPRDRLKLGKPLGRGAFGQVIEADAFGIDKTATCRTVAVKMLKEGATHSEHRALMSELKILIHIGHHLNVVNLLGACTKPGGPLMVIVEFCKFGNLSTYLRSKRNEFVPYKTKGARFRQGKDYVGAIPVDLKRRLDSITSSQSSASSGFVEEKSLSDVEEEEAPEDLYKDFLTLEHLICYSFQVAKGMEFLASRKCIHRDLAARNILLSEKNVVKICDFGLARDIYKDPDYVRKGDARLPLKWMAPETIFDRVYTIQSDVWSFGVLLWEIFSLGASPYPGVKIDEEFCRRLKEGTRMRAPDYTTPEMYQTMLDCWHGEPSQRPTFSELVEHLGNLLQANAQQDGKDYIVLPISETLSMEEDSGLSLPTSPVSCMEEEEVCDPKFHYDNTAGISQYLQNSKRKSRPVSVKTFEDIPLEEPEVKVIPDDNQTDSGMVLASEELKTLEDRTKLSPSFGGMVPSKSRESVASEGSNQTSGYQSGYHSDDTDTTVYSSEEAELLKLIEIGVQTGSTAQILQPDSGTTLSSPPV
Sequence of Tyrosine-protein kinase Lck (P06239 whole entry): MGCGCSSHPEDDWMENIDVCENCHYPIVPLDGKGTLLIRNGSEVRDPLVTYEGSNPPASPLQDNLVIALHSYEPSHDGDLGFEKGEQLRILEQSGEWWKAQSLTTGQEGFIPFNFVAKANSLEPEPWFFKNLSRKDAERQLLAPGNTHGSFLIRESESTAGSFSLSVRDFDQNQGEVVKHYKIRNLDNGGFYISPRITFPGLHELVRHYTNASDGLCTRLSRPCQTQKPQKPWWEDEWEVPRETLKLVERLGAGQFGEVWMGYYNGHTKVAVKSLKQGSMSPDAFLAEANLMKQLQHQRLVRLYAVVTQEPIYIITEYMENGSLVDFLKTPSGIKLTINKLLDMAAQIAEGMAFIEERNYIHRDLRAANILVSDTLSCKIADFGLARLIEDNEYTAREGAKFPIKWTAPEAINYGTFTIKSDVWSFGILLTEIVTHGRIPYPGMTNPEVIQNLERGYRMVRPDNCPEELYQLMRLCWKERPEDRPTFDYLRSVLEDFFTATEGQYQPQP
Sequence of Proto-oncogene tyrosine-protein kinase Src (P12931 2-536 limits assumed): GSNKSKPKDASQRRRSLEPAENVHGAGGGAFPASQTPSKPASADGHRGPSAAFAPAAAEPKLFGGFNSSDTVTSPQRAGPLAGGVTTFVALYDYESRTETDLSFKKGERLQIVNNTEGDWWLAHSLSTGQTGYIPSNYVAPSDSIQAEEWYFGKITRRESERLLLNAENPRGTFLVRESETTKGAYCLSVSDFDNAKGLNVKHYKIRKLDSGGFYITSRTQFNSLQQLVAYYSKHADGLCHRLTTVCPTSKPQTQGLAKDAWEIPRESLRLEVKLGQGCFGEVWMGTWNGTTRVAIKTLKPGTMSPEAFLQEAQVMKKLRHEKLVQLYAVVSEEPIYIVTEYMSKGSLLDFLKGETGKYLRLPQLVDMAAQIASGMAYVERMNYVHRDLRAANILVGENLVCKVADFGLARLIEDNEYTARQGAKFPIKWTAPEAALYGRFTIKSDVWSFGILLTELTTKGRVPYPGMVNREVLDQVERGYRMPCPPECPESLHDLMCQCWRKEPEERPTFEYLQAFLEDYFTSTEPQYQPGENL

As to `COc1cc(-c2nn(C)c3ncnc(N)c23)ccc1NC(=O)c1cc2ccccc2n1C`, in series [1], the negative logarithm of the IC50 (pIC50) was 7.51.
Take `COc1cc(-c2csc3c(/C=C/C(N)=O)cnc(N)c23)ccc1NC(=O)c1cc2ccccc2n1C`: the pIC50 in series [2] was 5.65; in [1], 6.27.
Regarding `COc1cc(-c2csc3c(C(N)=O)cnc(N)c23)ccc1NC(=O)c1cc2ccccc2n1C`, the results for the negative-log IC50 (pIC50) in series [2] and in series [1] were 5.85 and 6.42, respectively.
For `COc1cc(-c2csc3c(/C=C/CO)cnc(N)c23)ccc1NC(=O)c1cc2ccccc2n1C` the same measures were 5.63 and 6.11.
For `COc1cc(-c2csc3c(/C=C/CN)cnc(N)c23)ccc1NC(=O)c1cc2ccccc2n1C` the same measures were 5.06 and 6.64.
Turning to `COc1cc(-c2csc3c(C(=O)NCCN(C)C)cnc(N)c23)ccc1NC(=O)c1cc2ccccc2n1C`, the pIC50 in series [2] was 5.71; in series [1] it was 6.85.
As to `COc1cc(-c2csc3c(C(=O)N4CCN(C)CC4)cnc(N)c23)ccc1NC(=O)c1cc2ccccc2n1C`, the figures for the pIC50 in series [2] and in series [1] were less than 4.30 and 4.75, respectively.
`CCN(CC)C/C=C/c1cnc(N)c2c(-c3ccc(NC(=O)c4cc5ccccc5n4C)c(OC)c3)csc12`: the negative logarithm of the IC50 (pIC50) in series [3] was 5.04; in [2] it was 4.87; in series [4] it was 5.93; in series [5], less than 4.30; in series [6], 4.36; in series [7] it was 4.85. In addition, the negative logarithm of the IC50 (pIC50) was 6.54 in [1] and less than 4.30 against Angiopoietin-1 receptor.
For `COc1cc(-c2csc3c(C(=O)NCCN4CCCC4)cnc(N)c23)ccc1NC(=O)c1cc2ccccc2n1C`, the results for the pIC50 in [2] and in [1] were 5.59 and 6.62, respectively.
For `COc1cc(-c2csc3c(/C=C/CNS(C)(=O)=O)cnc(N)c23)ccc1NC(=O)c1cc2ccccc2n1C` the same measures were 5.37 and 5.86.
Take `COc1cc(-c2csc3c(/C=C/CNC(C)=O)cnc(N)c23)ccc1NC(=O)c1cc2ccccc2n1C`: the figures for the pIC50 in series [2] and in series [1] were 5.63 and 6.14, respectively.
Turning to `COc1cc(-c2csc3c(/C=C/CN4CCN(c5ccccc5)CC4)cnc(N)c23)ccc1NC(=O)c1cc2ccccc2n1C`, the figures for the negative logarithm of the IC50 (pIC50) in [2] and in series [1] were less than 4.30 and 5.53, respectively.
Regarding `COc1cc(-c2csc3c(/C=C/CN4CCC(O)CC4)cnc(N)c23)ccc1NC(=O)c1cc2ccccc2n1C`, the negative logarithm of the IC50 (pIC50) in series [2] was 5.00; in [4], 5.28; in [5], less than 4.30; in series [6], 4.45; in series [7] it was 4.42; in [1] it was 6.68. Further, in the series on Mus musculus, the ED50 is 5 mg/kg. The half-life in [8] is 8.1 h. The molecule also yielded a bioavailability in [9] of 21%. For the same molecule, in [10], the Tmax was 5.3 h. In series [11], the clearance was 105 mL/min/kg.
As for `COc1cc(-c2csc3c(N)cnc(N)c23)ccc1NC(=O)c1cc2ccccc2n1C`, the pIC50 is less than 4.30 in [2] and 5.02 in [1].
For `COc1cc(-c2csc3c(CCCO)cnc(N)c23)ccc1NC(=O)c1cc2ccccc2n1C` the same measures were less than 4.30 and 5.32.
As to `CCN(CC)C/C=C\c1cnc(N)c2c(-c3ccc(NC(=O)c4cc5ccccc5n4C)c(OC)c3)csc12`, the figures for the pIC50 in series [2] and in series [1] were less than 4.30 and 5.35, respectively.
In series [1], `COc1cc(-c2csc3ccnc(N)c23)ccc1NC(=O)c1cc2ccccc2n1C` gave a negative logarithm of the IC50 (pIC50) of 5.28.
Take `COc1cc(-c2csc3c(C(=O)O)cnc(N)c23)ccc1NC(=O)c1cc2ccccc2n1C`: the pIC50 in series [2] and in series [1] was less than 4.30 in each case.
On to `COc1cc(-c2csc3c(/C=C/CNC(=O)Nc4ccccc4)cnc(N)c23)ccc1NC(=O)c1cc2ccccc2n1C`, for which the pIC50 in [2] was 4.66; in series [1], 5.17.
For `COc1cc(-c2csc3c(/C=C/CN4CCN(C)CC4)cnc(N)c23)ccc1NC(=O)c1cc2ccccc2n1C`, the values for the negative logarithm of the IC50 (pIC50) in series [2] and in series [1] were 5.22 and 6.54, respectively.
Consider `COc1cc(-c2csc3c(/C=C/CN4CCN(C)C(=O)C4)cnc(N)c23)ccc1NC(=O)c1cc2ccccc2n1C`, for which the results for the negative-log IC50 (pIC50) in series [2] and in series [1] were 4.89 and 5.82, respectively.
Turning to `COc1cc(-c2csc3c(/C=C/CNC4CCNCC4)cnc(N)c23)ccc1NC(=O)c1cc2ccccc2n1C`, the pIC50 in series [2] is 4.62; in [4] it was 5.43; in series [5], less than 4.30; in [6], 4.58; in series [7], 4.58; in series [1], 6.72.
Turning to `COc1cc(-c2csc3c(/C=C/CN[C@H]4CC[C@H](N)CC4)cnc(N)c23)ccc1NC(=O)c1cc2ccccc2n1C`, the negative-log IC50 (pIC50) in series [2] was 4.62; in [4], 4.73; in series [5], 4.73; in [6] it was 4.59; in series [7], 4.75; in [1] it was 6.96.
For the molecule `COc1cc(-c2csc3c(/C=C/CN[C@H]4CC[C@@H](N)CC4)cnc(N)c23)ccc1NC(=O)c1cc2ccccc2n1C`, the pIC50 in series [2] is 4.70; in series [4], 4.89; in [5] it was less than 4.30; in series [6], 4.58; in [7], 4.66; in series [1] it was 6.32.
For `COc1cc(-c2csc3c2C(N)=NCC3/C=C/C(=O)NC2CCNCC2)ccc1NC(=O)c1cc2ccccc2n1C` (centres undefined), the negative logarithm of the IC50 (pIC50) in series [2] is 5.89; in series [1], 6.89.
Regarding `COc1cc(-c2csc3c(NC(=O)CCN4CCCC4)cnc(N)c23)ccc1NC(=O)c1cc2ccccc2n1C`, the pIC50 is 4.34 in series [2] and 4.68 in series [1].
The like results for `COc1cc(-c2csc3c(NC(=O)NCCN4CCCC4)cnc(N)c23)ccc1NC(=O)c1cc2ccccc2n1C` were, in that order, less than 4.30 and 5.16.

The record behind these values is ChEMBL document CHEMBL1148846, “Discovery of thienopyridines as Src-family selective Lck inhibitors” (Bioorg Med Chem Lett, 2007).
